Counter-ions that a name gives are not always drawn.
Assay: in vitro
Conditions: rat, gh3-tre-luc cells, AC50 (uM) modified / 1000

`CCCCCCCCCCCCCCCCCC(=O)OCC(CC)CCCC` (centres unmarked) [2-Ethylhexyl octadecanoate] and `CCCCCCCCCCCC(=O)OCC` [Ethyl dodecanoate] cannot be ordered by CC50 at 24 h: > 90 µM for the first, > 90 µM for the second.

`CC(C)(C)OC=O` [tert-Butyl formate] and `CC(C)OC=O` [Isopropyl formate] cannot be ordered by CC50 at 24 h: > 100 µM for the first, > 100 µM for the second.

`O=C(Cn1ccnc1[N+](=O)[O-])NCCO` [Etandazole] and `CCS(=O)(=O)CCn1c([N+](=O)[O-])cnc1C` [Tinidazole] cannot be ordered by CC50 at 24 h: > 50 µM for the first, > 20 µM for the second.

`N[C@H](CCC(=O)O)C(=O)O` [D-Glutamic acid] and `O=C(O)CCCCCC(=O)O` [Heptanedioic acid] cannot be ordered by CC50 at 24 h: > 50 µM for the first, > 90 µM for the second.

`C=C(C)[C@@H]1CC=C(C)CC1` [(S)-Limonene] and `CC1=CC(O)CC(C)(C)C1` (centres unmarked) [3,5,5-Trimethyl-2-cyclohexen-1-ol] cannot be ordered by CC50 at 24 h: > 90 µM for the first, > 90 µM for the second.

`CC=C(C)C(C)=O` [3-Methyl-3-penten-2-one] and `CC(=O)CN(CC(C)=O)N=O` [N-Nitrosobis(2-oxopropyl)amine] cannot be ordered by CC50 at 24 h: > 90 µM for the first, > 90 µM for the second.

`O=C1c2ccccc2-c2ccccc21` [9-Fluorenone] and `CCC=C1OC(=O)c2ccccc21` [3-Propylidenephthalide] cannot be ordered by CC50 at 24 h: > 90 µM for the first, > 90 µM for the second.

`C=C(C)CCCC(C)CCO` (centres unmarked) [Rhodinol] and `CCCCCCC(O)CO` (centres unmarked) [1,2-Octanediol] cannot be ordered by CC50 at 24 h: > 90 µM for the first, > 90 µM for the second.

`Cc1cccc2sc3nncn3c12` [2,7,8,9-Tricyclazole] and `Cc1ccccc1N=O` [2-Nitrosotoluene] cannot be ordered by CC50 at 24 h: > 90 µM for the first, > 90 µM for the second.

`COc1cc2nc(N(C)CCCNC(=O)C3CCCO3)nc(N)c2cc1OC` (centres unmarked) [Alfuzosin hydrochloride] and `C=C(C)C(=O)OCCC[Si](OC)(OC)OC` [3-(Trimethoxysilyl)propyl methacrylate] cannot be ordered by CC50 at 24 h: > 20 µM for the first, > 90 µM for the second.

`O=c1[nH]c(=O)n([C@H]2C[C@H](O)[C@@H](CO)O2)cc1Br` [5-Bromo-2'-deoxyuridine] and `CC1(C)NC(=O)N(c2ccc([N+](=O)[O-])c(C(F)(F)F)c2)C1=O` [Nilutamide] cannot be ordered by CC50 at 24 h: > 90 µM for the first, > 90 µM for the second.

`Cc1ccc2c(c1)CCCN2` [6-Methyl-1,2,3,4-tetrahydroquinoline] and `CCNc1cccc(C)c1` [N-Ethyl-3-methylaniline] cannot be ordered by CC50 at 24 h: > 90 µM for the first, > 90 µM for the second.

`CCCc1c2oc(C(=O)O)cc(=O)c2cc2c(=O)cc(C(=O)O)n(CC)c12` [Nedocromil] and `Nc1nc2[nH]cc(CCc3ccc(C(=O)N[C@@H](CCC(=O)O)C(=O)O)cc3)c2c(=O)[nH]1` [Pemetrexed disodium] cannot be ordered by CC50 at 24 h: > 50 µM for the first, > 50 µM for the second.

`Nc1ccc(C(=O)O)c(O)c1` [Sodium 4-aminosalicylate] and `O=C(O)c1ccncc1` [Isonicotinic acid] cannot be ordered by CC50 at 24 h: > 50 µM for the first, > 90 µM for the second.

First: CCc1ccc(O)c(C(C)(C)C)c1 [2-tert-Butyl-4-ethylphenol]
Second: CCC(C)(NC(=O)c1cc(Cl)c(C)c(Cl)c1)C(=O)CCl (centres unmarked) [Zoxamide]
The CC50 at 24 h of the first is 4.1-fold higher: 62.1 µM for the first, 15 µM for the second.

`CCCCCCCCCC(=O)O` [Decanoic acid] and `CCCC(=O)O` [Butanoic acid] cannot be ordered by CC50 at 24 h: > 50 µM for the first, > 100 µM for the second.

First: NS(=O)(=O)c1cc(C2(O)NC(=O)c3ccccc32)ccc1Cl (centres unmarked) [Chlorthalidone]
Second: Cc1cc(S(=O)(=O)O)ccc1N=Nc1c(O)ccc2ccccc12 [C.I. Acid Orange 8, monosodium salt]
The CC50 at 24 h of the first is higher: > 20 µM for the first, 19.3 µM for the second.

`N#CC(Cl)(Cl)Cl` [Trichloroacetonitrile] and `CC(=O)OC(c1ccccc1)C(Cl)(Cl)Cl` (centres unmarked) [2,2,2-Trichloro-1-phenylethyl acetate] cannot be ordered by CC50 at 24 h: > 90 µM for the first, > 90 µM for the second.

`Nc1ccc(S(=O)(=O)Nc2ccnn2-c2ccccc2)cc1` [Sulfaphenazole] and `O=C1N(c2ccccc2)c2ccccc2C1(Cc1ccncc1)Cc1ccncc1` [Linopirdine] cannot be ordered by CC50 at 24 h: > 20 µM for the first, > 50 µM for the second.

Compared with `O=C1OC(=O)C2C1C1(Cl)C(Cl)=C(Cl)C2(Cl)C1(Cl)Cl` (centres unmarked) [Chlorendic anhydride], `CCOC(=O)c1nc(C(Cl)(Cl)Cl)n(-c2ccc(Cl)cc2Cl)n1` [Fenchlorazole-ethyl] is lower in CC50 at 24 h: > 90 µM for the first, 52.1 µM for the second.

First: C=CCCC(=O)O [4-Pentenoic acid]
Second: C=CC(=O)OCCCCOC(=O)C=C [1,4-Butanediol diacrylate]
The CC50 at 24 h of the first is higher: > 90 µM for the first, 17.5 µM for the second.

Going from `CCCCCC` [n-Hexane] to `CCCCCCOc1ccc(O)cc1` [4-(Hexyloxy)phenol], the CC50 at 24 h falls from > 90 µM to 25.3 µM.

`O=CCCc1ccccc1` [3-Phenylpropanal] and `NC(=O)Nc1ccccc1` [1-Phenylurea] cannot be ordered by CC50 at 24 h: > 90 µM for the first, > 90 µM for the second.

First: S=C=Nc1ccc(N=C=S)cc1 [Bitoscanate]
Second: C=Cc1ccc(S(=O)(=O)O)cc1 [Sodium 4-vinylbenzenesulfonate]
The CC50 at 24 h of the first is higher: > 50 µM for the first, 31.8 µM for the second.

`CC(=O)Oc1c(C)cc(OCC(O)CNC(C)C)c(C)c1C` (centres unmarked) [Metipranolol] and `CC(C)CC(=O)CC(C)CC(C)C` (centres unmarked) [2,6,8-Trimethyl-4-nonanone] cannot be ordered by CC50 at 24 h: > 50 µM for the first, > 90 µM for the second.

`OC(CCCN1CCCCC1)(c1ccccc1)c1ccccc1` [Diphenidol] and `O=C(O)CCc1nc(-c2ccccc2)c(-c2ccccc2)o1` [Oxaprozin] cannot be ordered by CC50 at 24 h: > 50 µM for the first, > 50 µM for the second.

`Cc1cc2c3c(c1)C(c1ccccc1)=N[C@@H](NC(=O)c1ccncc1)C(=O)N3CC2` [CI-1018] and `Cc1ccc2c(ccc3ccccc32)c1` [2-Methylphenanthrene] cannot be ordered by CC50 at 24 h: > 90 µM for the first, > 90 µM for the second.

`CCN(CCC#N)c1ccccc1` [3-[Ethyl(phenyl)amino]propanenitrile] and `CC1=Nc2ccccc2C1(C)C` [2,3,3-Trimethylindolenine] cannot be ordered by CC50 at 24 h: > 90 µM for the first, > 90 µM for the second.

`CCOc1ccc(S(=O)(=O)O)c2cccnc12` [Actinoquinol] and `Cc1ncc(CO)c(C=O)c1O` [Pyridoxal] cannot be ordered by CC50 at 24 h: > 50 µM for the first, > 50 µM for the second.

`CS(=O)(=O)OCCCCOS(C)(=O)=O` [Busulfan] and `CCCCC(CC)C(=O)OCCOCCOCCOCCOC(=O)C(CC)CCCC` (centres unmarked) [Tetraethylene glycol di(2-ethylhexanoate)] cannot be ordered by CC50 at 24 h: > 90 µM for the first, > 90 µM for the second.

`CCNCCO` [2-(Ethylamino)ethanol] and `NCCNCCN` [Diethylenetriamine] cannot be ordered by CC50 at 24 h: > 90 µM for the first, > 90 µM for the second.

Compared with `CCCCCCCCCC[N+](C)(CCCCCCCCCC)CCC[Si](OC)(OC)OC` [Disiquonium chloride], `CCCCC[C@H](O)/C=C/[C@H]1[C@H](O)CC(=O)[C@@H]1C/C=C\CCCC(=O)O` [Dinoprostone] is higher in CC50 at 24 h: 25.6 µM for the first, > 50 µM for the second.

`NC(=O)CI` [Iodoacetamide] and `NC(=O)NO` [Hydroxyurea] cannot be ordered by CC50 at 24 h: > 90 µM for the first, > 90 µM for the second.

`Cc1ccc([N+](=O)[O-])cc1Cl` [2-Chloro-1-methyl-4-nitrobenzene] and `CCCN1CCC[C@H](c2cccc(O)c2)C1` [R-3-PPP hydrochloride] cannot be ordered by CC50 at 24 h: > 90 µM for the first, > 50 µM for the second.

`CO[C@@]1(NC(=O)C2SC(=C(C(N)=O)C(=O)O)S2)C(=O)N2C(C(=O)O)=C(CSc3nnnn3C)CS[C@@H]21` (some centres unmarked) [Cefotetan] and `Cc1scc2c1N(C(=O)CN1CCN(C)CC1)c1ccccc1NC2=O` [Telenzepine] cannot be ordered by CC50 at 24 h: > 20 µM for the first, > 50 µM for the second.

First: CCNC(=O)NC(=O)/C(C#N)=N/OC [Cymoxanil]
Second: CC1=C(/C=C/C(C)=C/C=C/C(C)=C/C=C/C=C(C)/C=C/C=C(C)/C=C/C2=C(C)C[C@@H](O)CC2(C)C)C(C)(C)C[C@H](O)C1 [Zeaxanthin]
The CC50 at 24 h of the first is higher: > 90 µM for the first, 28.9 µM for the second.

In the case of `C=CCSSSCC=C` [Diallyl trisulfide], the CC50 at 24 h is reported as > 50 µM.

Same assay, conditions: rat, gh3-tre-luc cells, AC50 (uM) modified / 1000, Tox21_110001=Tox21_110110; viability, 1 nM T3 present, 24 h

For `Clc1cccc(N2CCNCC2)c1` [1-(3-Chlorophenyl)piperazine], the CC50 at 24 h was > 50 µM.

Same assay, conditions: rat, gh3-tre-luc cells, AC50 (uM) modified / 1000, Tox21_110001=Tox21_111239; viability, 1 nM T3 present, 24 h

In the case of `CC(C)NC(C)Cc1ccc(I)cc1` (centres unmarked) [Iofetamine hydrochloride], the CC50 at 24 h is reported as > 50 µM.

Same assay, conditions: rat, gh3-tre-luc cells, AC50 (uM) modified / 1000, Tox21_110001=Tox21_111700; viability, 1 nM T3 present, 24 h

In the case of `O=C(Nc1ccc(Br)cc1)c1cc(Br)cc(Br)c1O` [Tribromsalan], the CC50 at 24 h is reported as 14.2 µM.

Same assay, conditions: rat, gh3-tre-luc cells, AC50 (uM) modified / 1000, Tox21_110001=Tox21_112409; viability, 1 nM T3 present, 24 h

For `CCN(CC)C(=O)C(Cl)=C(C)OP(=O)(OC)OC` [Phosphamidon], the CC50 at 24 h was > 50 µM.

Same assay, conditions: rat, gh3-tre-luc cells, AC50 (uM) modified / 1000, Tox21_110001=Tox21_112893; viability, 1 nM T3 present, 24 h

Work on `CCCN(CCC)CCc1c[nH]c2ccccc12` [N,N-Dipropyltryptamine hydrochloride] yielded a CC50 at 24 h of 39.8 µM.

Same assay, conditions: rat, gh3-tre-luc cells, AC50 (uM) modified / 1000, Tox21_110001=Tox21_200806; viability, 1 nM T3 present, 24 h

In the case of `ClC(Cl)Br` [Bromodichloromethane], the CC50 at 24 h is reported as > 90 µM.

Same assay, conditions: rat, gh3-tre-luc cells, AC50 (uM) modified / 1000, Tox21_110001=Tox21_200928; viability, 1 nM T3 present, 24 h

In the case of `OC[P+](CO)(CO)CO` [Tetrakis(hydroxymethyl)phosphonium sulfate], the CC50 at 24 h is reported as > 90 µM.

Same assay, conditions: rat, gh3-tre-luc cells, AC50 (uM) modified / 1000, Tox21_110001=Tox21_202017; viability, 1 nM T3 present, 24 h

For `CCOC(=O)CC(SP(=O)(OC)OC)C(=O)OCC` (centres unmarked) [Malaoxon], the CC50 at 24 h was > 90 µM.

Same assay, conditions: rat, gh3-tre-luc cells, AC50 (uM) modified / 1000, Tox21_110001=Tox21_202100; viability, 1 nM T3 present, 24 h

For `CCN(CC)C(=O)C(Cl)=C(C)OP(=O)(OC)OC` [Phosphamidon], the CC50 at 24 h was > 90 µM.

Same assay, conditions: rat, gh3-tre-luc cells, AC50 (uM) modified / 1000, Tox21_110001=Tox21_202442; viability, 1 nM T3 present, 24 h

With `O=C(Nc1ccc(Br)cc1)c1cc(Br)cc(Br)c1O` [Tribromsalan] the CC50 at 24 h was 5.41 µM.

Same assay, conditions: rat, gh3-tre-luc cells, AC50 (uM) modified / 1000, Tox21_110001=Tox21_301184; viability, 1 nM T3 present, 24 h

In the case of `COc1cc(OC)nc(NC(=O)NS(=O)(=O)c2ncccc2OCC(F)(F)F)n1` [Trifloxysulfuron-sodium], the CC50 at 24 h is reported as > 90 µM.

Same assay, conditions: rat, gh3-tre-luc cells, AC50 (uM) modified / 1000, Tox21_110001=Tox21_302104; viability, 1 nM T3 present, 24 h

With `C1CCC(C2CCCCC2)CC1` [Dicyclohexyl] the CC50 at 24 h was > 90 µM.

Same assay, conditions: rat, gh3-tre-luc cells, AC50 (uM) modified / 1000, Tox21_110001=Tox21_303223; viability, 1 nM T3 present, 24 h

Work on `O=C(Nc1ccc(Br)cc1)c1cc(Br)cc(Br)c1O` [Tribromsalan] yielded a CC50 at 24 h of 6.43 µM.

Source: publication PMC6792352, “Limited Chemical Structural Diversity Found to Modulate Thyroid Hormone Receptor in the Tox21 Chemical Library” (Environmental Health Perspectives, 2019)
